“And” between values parts separate entries of the source, which are not always exact repeats. Equal values may be shown once. Read-outs that look alike come from different tables or passages of the source.
Test system: L. major lysate proteins
Experiment: Multitargeted bead mixture chemoproteomics, single concentration competition, proteome-wide
Type: binding

NCCCNc1ccc(C(=O)NC(CCC(=O)O)C(=O)O)cc1 (stereo not drawn) [compound 7]
fold change: 0.99 | fold change relative to vehicle control: 1.03 and 1.04 | fold change vs vehicle control: 1.19 and 1.04 and 1.12 | protein inhibition, any captured protein (Figure 8) (bead mixture, L. major lysate): no protein inhibition >30% | fold change vs vehicle control (protein CLI00016468.1 KINETOPLASTID MEMBRANE PROTEIN-11): 0.73 | fold change vs vehicle control (protein LINJ.03.0240 RIBOSOMAL PROTEIN L38, PUTATIVE): 1.02 | fold change vs vehicle control (protein LINJ.11.0780 40S RIBOSOMAL PROTEIN S21, PUTATIVE): 1.05 | fold change (protein LINJ.11.0960 40S RIBOSOMAL PROTEIN S5, vehicle control = 1): 0.98 | fold change vs vehicle control (protein LINJ.13.0990 […] SUBUNIT 2, PUTATIVE): 1.26 | fold change vs vehicle control (protein LINJ.15.0330 RIBONUCLEOPROTEIN P18, MITOCHONDRIAL PRECURSOR, PUTATIVE): 0.97 | fold change (protein LINJ.19.0090 FIBRILLARIN, PUTATIVE, vehicle control = 1): 1.04 | fold change relative to vehicle control (protein LINJ.23.0860, 3-KETOACYL-COA THIOLASE, PUTATIVE): 1.02 | fold change relative to vehicle control (protein LINJ.24.2300, 60S RIBOSOMAL PROTEIN L12, PUTATIVE): 1.04 | fold change vs vehicle control (protein LINJ.25.2230 SUCCINYL-COA SYNTHETASE ALPHA SUBUNIT, PUTATIVE): 0.97 | fold change vs vehicle control (protein LINJ.26.1630 40S RIBOSOMAL PROTEIN S33, PUTATIVE): 1.04 | fold change vs vehicle control (protein LINJ.28.1100 RIBOSOMAL PROTEIN S20, PUTATIVE): 1.02 | fold change relative to vehicle control (protein LINJ.28.1940, REPLICATION FACTOR A, 51KDA SUBUNIT, PUTATIVE): 1.1 | fold change (protein LINJ.28.2280 DYNEIN LIGHT CHAIN LC6, FLAGELLAR OUTER ARM, PUTATIVE, vehicle control = 1): 0.9 | fold change (protein LINJ.28.2870 PROTEIN PHOSPHATASE 4 CATALYTIC SUBUNIT, PUTATIVE, vehicle control = 1): 0.91 | fold change relative to vehicle control (protein LINJ.31.1600, […] OXIDASE VIII (COX VIII), PUTATIVE): 1.19 | fold change relative to vehicle control (protein LINJ.33.1730, CYCLOPHILIN 4, PUTATIVE): 1.08 | fold change vs vehicle control (protein LINJ.34.0670 PROTEASOME REGULATORY NON-ATP-ASE SUBUNIT 11, PUTATIVE,19S PROTEASOME REGULATORY SUBUNIT): 0.97 | fold change vs vehicle control (protein LINJ.36.0780 PROTEIN KINASE, PUTATIVE,MITOGEN-ACTIVATED PROTEIN KINASE, PUTATIVE): 1.26 | fold change relative to vehicle control (protein LINJ.36.3960, BASIC TRANSCRIPTION FACTOR 3A, PUTATIVE): 1.58 | fold change relative to vehicle control (protein LINJ.36.4080, HY[…], CONSERVED): 1.32 | fold change (protein LINJ.36.4180 HS1VU COMPLEX PROTEOLYTIC SUBUNIT-LIKE, vehicle control = 1): 0.93 | fold change vs vehicle control (protein LINJ.[…] LONG-CHAIN-FATTY-ACID-COA LIGASE, PUTATIVE): 0.9 | fold change (protein LMJF.01.0570 TRIC[…], PUTATIVE, vehicle control = 1): 0.92 | fold change relative to vehicle control (protein LMJF.03.0200, DELTA-1-PYRROLINE-5-CARBOXYLATE DEHYDROGENASE, PUTATIVE): 1.07 | fold change (protein LMJF.03.0230 LONG CHAIN FATTY ACYL COA SYNTHETASE, PUTATIVE, vehicle control = 1): 1 | fold change (protein LMJF.03.0980 […] 2 ALPHA SUBUNIT, PUTATIVE, vehicle control = 1): 1.01 | fold change vs vehicle control (protein LMJF.04.0630 HY[…], CONSERVED): 1.07 | fold change vs vehicle control (protein LMJF.04.1230 actin): 1.04 | fold change (protein LMJF.05.0100 PHOSPHOPROTEIN PHOSPHATASE, PUTATIVE, vehicle control = 1): 0.91 | fold change (protein LMJF.05.0280 PROTEIN TYROSINE PHOSPHATASE, PUTATIVE, vehicle control = 1): 0.99 | fold change (protein LMJF.05.0510 ATPASE ALPHA SUBUNIT, vehicle control = 1): 1.08 | fold change (protein LMJF.05.1040 STOMATIN-LIKE PROTEIN, vehicle control = 1): 0.92 | fold change (protein LMJF.06.0650 LANOSTEROL SYNTHASE, PUTATIVE, vehicle control = 1): 0.95 | fold change vs vehicle control (protein LMJF.07.0700 TOPOISOMERASE-RELATED FUNCTION PROTEIN-LIKE PROTEIN): 1.1 | fold change (protein LMJF.07.1000 RNA BINDING PROTEIN-LIKE PROTEIN, vehicle control = 1): 0.88 | fold change relative to vehicle control (protein LMJF.07.1140, PEPTIDE […] REDUCTASE-LIKE): 1.06 | fold change (protein LMJF.08.0510 RIBOSE-PHOSPHATE PYROPHOSPHOKINASE, PUTATIVE, vehicle control = 1): 0.91 | fold change vs vehicle control (protein LMJF.08.0550 TRANSLATION INITIATION FACTOR-LIKE PROTEIN): 0.9 | fold change relative to vehicle control (protein LMJF.08.1030, cathepsin L-like protease): 1.03 | fold change vs vehicle control (protein LMJF.08.1100 HYPOTHETICAL PROTEIN, CONSERVED): 0.98 | fold change vs vehicle control (protein LMJF.09.1010 HYPOTHETICAL PROTEIN, CONSERVED): 0.75 | fold change relative to vehicle control (protein LMJF.09.1120, MIT[…] BINDING PROTEIN 2,MRP2, GBP25): 1.14 | fold change vs vehicle control (protein LMJF.09.1260 HYPOTHETICAL PROTEIN, CONSERVED): 0.95 | fold change (protein LMJF.10.0210 NUCLEOLAR PROTEIN, PUTATIVE, vehicle control = 1): 1.01 | fold change vs vehicle control (protein LMJF.10.0310 PROTEIN TRANSPORT PROTEIN SEC23, PUTATIVE): 1.31 | fold change (protein LMJF.11.0590 3-[…]-COA C[…] SUBUNIT, PUTATIVE, vehicle control = 1): 1 | fold change relative to vehicle control (protein LMJF.11.0630, AMINOPEPTIDASE, PUTATIVE,METALLO-PEPTIDASE, CLAN MF, FAMILY M17): 0.94 | fold change vs vehicle control (protein LMJF.11.1050 PRETRA[…], ALPHA SUBUNIT, PUTATIVE,SEC61-LIKE (PRETRA[…]) PROTEIN, PUTATIVE): 1.07 | fold change (protein LMJF.11.1160 PROTEIN TRANSPORT PROTEIN SEC31, PUTATIVE, vehicle control = 1): 1.26 | fold change (protein LMJF.12.0030 PROTEASOME BETA-1 SUBUNIT, PUTATIVE, vehicle control = 1): 0.94 | fold change vs vehicle control (protein LMJF.12.0210 […] […]1L8 3, PUTATIVE): 0.95 | fold change relative to vehicle control (protein LMJF.12.0530, GLUCOSE-6-PHOSPHATE ISOMERASE): 1.09 | fold change (protein LMJF.12.0630 ALANINE AMINOTRANSFERASE, vehicle control = 1): 0.93 | fold change vs vehicle control (protein LMJF.13.1230 40S RIBOSOMAL PROTEIN S4, PUTATIVE): 1.05 | fold change vs vehicle control (protein LMJF.14.0310 PROTEASOME ALPHA 3 SUBUNIT, PUTATIVE): 0.96 | fold change (protein LMJF.14.0660 FATTY ACID ELONGASE, PUTATIVE, vehicle control = 1): 1.02 | fold change (protein LMJF.14.0670 FATTY ACID ELONGASE, PUTATIVE, vehicle control = 1): 0.94 | fold change vs vehicle control (protein LMJF.14.0680 FATTY ACID ELONGASE, PUTATIVE): 1.14 | fold change (protein LMJF.14.0990 ADP/ATP MIT[…]-LIKE PROTEIN, vehicle control = 1): 1.25 | fold change vs vehicle control (protein LMJF.14.1160 ENOLASE): 1.02 | fold change (protein LMJF.14.1440 HYPOTHETICAL PROTEIN, CONSERVED (cytoskeleton associated protein, putative), vehicle control = 1): 0.82
